Data published in ChEMBL document CHEMBL5154686, “Discovery of G2019S-Selective Leucine Rich Repeat Protein Kinase 2 inhibitors with in vivo efficacy” (Eur J Med Chem, 2022).

How the values were obtained:
[1] = MRT in CD-1 mouse plasma at 0.4 mg/kg, iv by LC-MS/MS analysis; type: ADME, organism-based
[2] = Cmax in CD-1 mouse plasma at 0.4 mg/kg, iv by LC-MS/MS analysis; type: ADME, organism-based; design: dose 0.4 mg/kg, route iv
[3] = Oral bioavailability in CD-1 mouse plasma at 2 mg/kg by LC-MS/MS analysis; type: ADME, organism-based
[4] = Cmax in CD-1 mouse plasma at 2 mg/kg, po by LC-MS/MS analysis; type: ADME, organism-based; design: dose 2 mg/kg, route po
[5] = Tmax in CD-1 mouse plasma at 2 mg/kg, po by LC-MS/MS analysis; type: ADME, organism-based
[6] = Half life in CD-1 mouse plasma at 2 mg/kg, po by LC-MS/MS analysis; type: ADME, organism-based
in vitro [7] = conditions: human, Caco-2
[8] = Clearance in CD-1 mouse plasma at 0.4 mg/kg, iv by LC-MS/MS analysis; type: ADME, organism-based
in vitro [9] = conditions: mouse, liver microsomes
[10] = Half life in CD-1 mouse plasma at 0.4 mg/kg, iv by LC-MS/MS analysis; type: ADME, organism-based
[11] = Ratio of drug level in brain to plasma in CD-1 mouse plasma at 2 mg/kg, po by LC-MS/MS analysis; type: ADME, organism-based; conditions: brain and plasma, read-out: BPR
in vitro [12] = conditions: human, liver microsomes
in vitro [13] = conditions: human, Caco-2; remark: listed apart in the source
[14] = Ratio of drug level in brain to plasma in CD-1 mouse plasma at 0.4 mg/kg, iv by LC-MS/MS analysis; type: ADME, organism-based; conditions: brain and plasma, read-out: BPR
[15] = AUC infinity in CD-1 mouse plasma at 0.4 mg/kg, iv by LC-MS/MS analysis; type: ADME, organism-based; design: time infinity, dose 0.4 mg/kg, route iv
[16] = AUC infinity in CD-1 mouse plasma at 2 mg/kg, po by LC-MS/MS analysis; type: ADME, organism-based; design: time infinity, dose 2 mg/kg, route po
[17] = MRT in CD-1 mouse plasma at 2 mg/kg, po by LC-MS/MS analysis; type: ADME, organism-based

| MRT [1] | Cmax [2] | bioavailability [3] | Cmax [4] | Tmax [5] | half-life [6] | Papp A→B (in vitro [7]) | clearance [8] | half-life (in vitro [9]) | half-life [10] | Kp [11] | half-life (in vitro [12]) | Papp B→A (in vitro [13]) | Kp [14] | AUC(0-inf) [15] | AUC(0-inf) [16] | MRT [17] | SMILES |
| --- | --- | --- | --- | --- | --- | --- | --- | --- | --- | --- | --- | --- | --- | --- | --- | --- | --- |
|  |  |  |  |  |  | 13 ×10⁻⁶ cm/s |  | 15.4 min |  |  | 22 min | 4.1 ×10⁻⁶ cm/s |  |  |  |  | Cc1cc(-c2n[nH]c3ccc(N[C@H]4CCCc5cc(C#N)ccc54)cc23)ccn1 |
| 30.6 min | 310 nM | 77% | 390 nM | 3000 min | 107 min | 1.8 ×10⁻⁶ cm/s | 65.1 mL/min | 12.8 min | 24 min | 0.1 | 22 min | 6.8 ×10⁻⁶ cm/s | 0.5 | 0.16 µM·h | 1.06 µM·h | 162 min | Cc1cc(-c2n[nH]c3ccc(N[C@@H]4CCCc5cc(C#N)ccc54)cc23)ccn1 |

The next lines start with the compound.

| SMILES | MRT [1] | Cmax [2] | bioavailability [3] | Cmax [4] | Tmax [5] | half-life [6] | Papp A→B (in vitro [7]) | clearance [8] | half-life (in vitro [9]) | half-life [10] | Kp [11] | half-life (in vitro [12]) | Papp B→A (in vitro [13]) | Kp [14] | AUC(0-inf) [15] | AUC(0-inf) [16] | MRT [17] |
| --- | --- | --- | --- | --- | --- | --- | --- | --- | --- | --- | --- | --- | --- | --- | --- | --- | --- |
| N#Cc1ccc2c(c1)CCC[C@@H]2Nc1ccc2[nH]nc(-c3ccncc3)c2c1 | 48 min | 340 nM | 112% | 470 nM | 30 min | 90 min | 8.9 ×10⁻⁶ cm/s | 68.4 mL/min | 17.7 min | 42 min | 0.8 | 33 min | 7.3 ×10⁻⁶ cm/s | 1.8 | 0.27 µM·h | 1.49 µM·h | 152 min |
| N#Cc1ccc2c(c1)CCC[C@H]2Nc1ccc2[nH]nc(-c3ccnc(N4CCOCC4)c3)c2c1 | 51.6 min | 480 nM | 80% | 500 nM | 30 min | 104 min | 6.2 ×10⁻⁶ cm/s | 36.6 mL/min | 12.7 min | 42 min | 0.1 | 30 min | 0.8 ×10⁻⁶ cm/s | 0.3 | 0.4 µM·h | 1.64 µM·h | 175 min |
| N#Cc1ccc2c(c1)OCC[C@H]2Nc1ccc2[nH]nc(-c3ccncc3)c2c1 | 24.6 min | 280 nM | 147% | 460 nM | 30 min | 88.2 min | 19 ×10⁻⁶ cm/s | 94.9 mL/min | 10.3 min | 18 min | 0.5 | 38 min | 25 ×10⁻⁶ cm/s | 1 | 0.14 µM·h | 1.29 µM·h | 145 min |
| N#Cc1ccc2c(c1)CCC[C@H]2Nc1ccc2[nH]nc(-c3ccncc3)c2c1 |  |  |  |  |  |  | 8.1 ×10⁻⁶ cm/s |  | 12.4 min |  |  | 26 min | 11 ×10⁻⁶ cm/s |  |  |  |  |
| Cc1cc(-c2n[nH]c3ccc(N[C@H]4CCCc5cc(C#N)ccc54)cc23)cc(C)n1 |  |  |  |  |  |  | 4.6 ×10⁻⁶ cm/s |  | 11.7 min |  |  | 15 min | 4 ×10⁻⁶ cm/s |  |  |  |  |
